Source: US11976057B2, “MrgX2 antagonists” (GlaxoSmithKline Intellectual Property Development Limited, priority 2020, dated 2024)

target: T1, human MRGPRX2 (Homo sapiens, UniProt Q96LB1); test: Ca2+ mobilization assay (FLIPR TETRA): inhibition of Cortistatin-14 mediated MRGPRX2 activation; conditions: not given
T1 sequence (Q96LB1 1-330): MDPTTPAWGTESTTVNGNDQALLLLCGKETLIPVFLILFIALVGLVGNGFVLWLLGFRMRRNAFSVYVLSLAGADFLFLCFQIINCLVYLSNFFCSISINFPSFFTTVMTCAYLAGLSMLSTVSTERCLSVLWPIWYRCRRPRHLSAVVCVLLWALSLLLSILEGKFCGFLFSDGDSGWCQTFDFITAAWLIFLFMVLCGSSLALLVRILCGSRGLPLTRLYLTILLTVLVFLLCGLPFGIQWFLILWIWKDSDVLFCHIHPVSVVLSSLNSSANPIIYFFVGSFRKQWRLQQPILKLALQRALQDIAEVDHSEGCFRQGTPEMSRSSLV

**Q.** With C[C@@H](C(=O)Nc1ccc2ccccc2n1)N1CCC(F)(F)[C@@H](c2ccc(=O)[nH]c2)C1 [Example 54, (S)-2-((S)-4,4-difluoro-3-(6-oxo-1,6-dihydropyridin-3-yl)piperidin-1-yl)-N-(quinolin-2-yl)propanamide] as the molecule, how does the IC50 read?
**A.** The IC50 was 0.1 to 3.16 µM.

**Q.** CC(=O)NCc1cc(C2CN(C(C)C(=O)Nc3ccc(Oc4ccc(F)cc4F)cn3)CCC2(F)F)cc[n+]1[O-] (mixture of isomers) [Example 262, 2-(acetamidomethyl)-4-(1-(1-((5-(2,4-difluorophenoxy)pyridin-2-yl)amino)-1-oxopropan-2-yl)-4,4-difluoropiperidin-3-yl)pyridine 1-oxide] was tested. Which IC50 did it give?
**A.** The IC50 was ≤ 0.01 µM.

**Q.** How did the IC50 turn out when CC(C(=O)Nc1ccc(Oc2ccc(F)cc2)cn1)N1CCC(F)(F)C(c2c[nH]c(=O)c(CN3CCOCC3)c2)C1 (stereo not shown) [Example 226, 2-(4,4-difluoro-3-(5-(morpholinomethyl)-6-oxo-1,6-dihydropyridin-3-yl)piperidin-1-yl)-N-(5-(4-fluorophenoxy)pyridin-2-yl)propanamide] was run?
**A.** Its IC50 is 0.01 to 0.1 µM.

**Q.** C[C@@H](C(=O)Nc1ccc(Oc2ccc(F)cn2)cn1)[C@H]1CCC[C@@H](c2cc[n+]([O-])cc2)C1 [Example 287, 4-((1R,3S)-3-((R)-1-((5-((5-fluoropyridin-2-yl)oxy)pyridin-2-yl)amino)-1-oxopropan-2-yl)cyclohexyl)pyridine 1-oxide] was tested. Which IC50 did it give?
**A.** The IC50 was 0.01 to 0.1 µM.

**Q.** For C[C@@H](C(=O)Nc1ccc(Oc2ccc(F)cc2F)cn1)N1CCC(F)(F)[C@@H](c2c[nH]c(=O)c([C@H](N)C(F)(F)F)c2)C1 (single isomer, unassigned) [Example 235], which IC50 is on record?
**A.** Its IC50 is ≤ 0.01 µM.

**Q.** With C[C@@H](C(=O)Nc1ccc(OCC2CC2)cn1)N1CCC(F)(F)[C@@H](c2ccc(=O)n(CC(F)(F)F)c2)C1 (single isomer, unassigned) [Example 2] as the molecule, how does the IC50 read?
**A.** Its IC50 is ≤ 0.01 µM.

**Q.** Which IC50 does the source give for CC(C(=O)Nc1ccc(Br)cn1)N1CCC(F)(F)[C@@H](c2ccc(=O)[nH]c2)C1 (stereo partly drawn) [Example 94, N-(5-bromopyridin-2-yl)-2-((S)-4,4-difluoro-3-(6-oxo-1,6-dihydropyridin-3-yl)piperidin-1-yl)propanamide] here?
**A.** Its IC50 is 0.1 to 3.16 µM.

**Q.** How did the IC50 turn out when CC(C(=O)Nc1ccc(OC2CC3(CCC3)C2)cn1)N1CCC(F)(F)[C@@H](c2ccc(=O)[nH]c2)C1 (stereo partly drawn) [Example 73, 2-((S)-4,4-difluoro-3-(6-oxo-1,6-dihydropyridin-3-yl)piperidin-1-yl)-N-(5-(spiro[3.3]heptan-2-yloxy)pyridin-2-yl)propanamide] was run?
**A.** The IC50 was 0.1 to 3.16 µM.

**Q.** How did the IC50 turn out when C[C@@H](C(=O)Nc1ccc(Cl)cn1)N1CCC(F)(F)[C@@H](c2ccc(=O)[nH]n2)C1 [Example 149, (S)-N-(5-chloropyridin-2-yl)-2-((R)-4,4-difluoro-3-(6-oxo-1,6-dihydropyridazin-3-yl)piperidin-1-yl)propanamide] was run?
**A.** The IC50 was 0.1 to 3.16 µM.

**Q.** Which IC50 does the source give for C[C@@H](C(=O)Nc1ccc(C(=O)OC2CCCC2)cn1)N1CCC(F)(F)[C@@H](c2ccc(=O)[nH]c2)C1 [Example 46, cyclopentyl 6-((S)-2-((S)-4,4-difluoro-3-(6-oxo-1,6-dihydropyridin-3-yl)piperidin-1-yl)propanamido) nicotinate] here?
**A.** The IC50 was 0.1 to 3.16 µM.

**Q.** For COc1cc(F)ccc1Oc1ccc(NC(=O)[C@H](C)N2CCC(F)(F)[C@@H](c3ccc(=O)[nH]c3)C2)nc1 [Example 269], which IC50 is on record?
**A.** Its IC50 is ≤ 0.01 µM.

**Q.** For C[C@@H](C(=O)Nc1cnc(Oc2ccc(F)cc2F)cn1)N1CCC(F)(F)[C@@H](c2ccc(=O)[nH]c2)C1 [Example 85, (S)-2-((S)-4,4-difluoro-3-(6-oxo-1,6-dihydropyridin-3-yl)piperidin-1-yl)-N-(5-(2,4-difluorophenoxy)pyrazin-2-yl)propanamide], which IC50 is on record?
**A.** Its IC50 is ≤ 0.01 µM.

**Q.** For C[C@@H](C(=O)Nc1ccc(OCC2CC2)nn1)N1CCC(F)(F)[C@@H](c2c[nH]c(=O)c(CN(C)C)c2)C1 [Example 231], which IC50 is on record?
**A.** Its IC50 is 0.1 to 3.16 µM.

**Q.** Which IC50 does the source give for C[C@@H](C(=O)Nc1cnc(Oc2ccc(F)cc2F)cn1)N1CCC(F)(F)[C@@H](c2cc[n+]([O-])cc2)C1 [Example 132, 4-((S)-1-((S)-1-((5-(2,4-difluorophenoxy)pyrazin-2-yl)amino)-1-oxopropan-2-yl)-4,4-difluoropiperidin-3-yl)pyridine 1-oxide] here?
**A.** The IC50 was ≤ 0.01 µM.

**Q.** How did the IC50 turn out when CC(C(=O)Nc1ccc(Oc2cncc(F)c2)cn1)N1CCC(F)(F)[C@@H](c2ccc(=O)[nH]c2)C1 (stereo partly drawn) [Example 67, 2-((S)-4,4-difluoro-3-(6-oxo-1,6-dihydropyridin-3-yl)piperidin-1-yl)-N-(5-((5-fluoropyridin-3-yl)oxy)pyridin-2-yl)propanamide] was run?
**A.** Its IC50 is 0.01 to 0.1 µM.

**Q.** How did the IC50 turn out when C[C@@H](C(=O)Nc1ccc(OC2CCC2)nn1)N1CCC(F)(F)[C@@H](c2ccc(=O)[nH]c2)C1 [Example 100, (S)-N-(6-cyclobutoxy-pyridazin-3-yl)-2-((S)-4,4-difluoro-3-(6-oxo-1,6-dihydropyridin-3-yl)piperidin-1-yl)propanamide] was run?
**A.** Its IC50 is 0.1 to 3.16 µM.

**Q.** Which IC50 does the source give for CC(C(=O)Nc1ccc(Oc2ccccc2)cn1)N1CCC(F)(F)C(c2c[nH]c(=O)c(CN)c2)C1 (stereo not shown) [Example 202, 2-(3-(5-(aminomethyl)-6-oxo-1,6-dihydropyridin-3-yl)-4,4-difluoropiperidin-1-yl)-N-(5-phenoxypyridin-2-yl)propanamide] here?
**A.** The IC50 was ≤ 0.01 µM.

**Q.** For C[C@@H](C(=O)Nc1ccc(Cl)cn1)N1CCC[C@@H](c2ccc(=O)n(CC(F)(F)F)c2)C1 (single isomer, unassigned) [Example 167], which IC50 is on record?
**A.** Its IC50 is 0.1 to 3.16 µM.

**Q.** Which IC50 does the source give for COc1cccc(Oc2ccc(NC(=O)C(C)N3CCC(F)(F)[C@@H](c4ccc(=O)[nH]c4)C3)nc2)n1 (stereo partly drawn) [Example 95, 2-((S)-4,4-difluoro-3-(6-oxo-1,6-dihydropyridin-3-yl)piperidin-1-yl)-N-(5-((6-methoxypyridin-2-yl)oxy)pyridin-2-yl)propanamide] here?
**A.** Its IC50 is 0.01 to 0.1 µM.

**Q.** How did the IC50 turn out when C[C@@H](C(=O)Nc1ccc(Oc2ccc(F)cc2F)cn1)N1CCC(F)(F)[C@@H](c2c[nH]c(=O)c(CN3CCC(F)(F)CC3)c2)C1 [Example 240, (S)-N-(5-(2,4-difluorophenoxy)pyridin-2-yl)-2-((S)-3-(5-((4,4-difluoropiperidin-1-yl)methyl)-6-oxo-1,6-dihydropyridin-3-yl)-4,4-difluoropiperidin-1-yl)propanamide] was run?
**A.** The IC50 was ≤ 0.01 µM.

**Q.** With Cc1cc(C2CN([C@@H](C)C(=O)Nc3ccc(F)cn3)CCC2(F)F)cc[n+]1[O-] (stereo partly drawn) [Example 217, 4-(4,4-difluoro-1l-((S)-1-((5-fluoropyridin-2-yl)amino)-1-oxopropan-2-yl)piperidin-3-yl)-2-methylpyridine 1-oxide] as the molecule, how does the IC50 read?
**A.** The IC50 was 0.1 to 3.16 µM.

**Q.** For CC(C(=O)Nc1ccc(OCC2CCCC2)cn1)N1CCC(F)(F)[C@@H](c2ccc(=O)[nH]c2)C1 (stereo partly drawn) [Example 47, N-(5-(cyclopentyl-methoxy)pyridin-2-yl)-2-((S)-4,4-difluoro-3-(6-oxo-1,6-dihydropyridin-3-yl)piperidin-1-yl)propanamide], which IC50 is on record?
**A.** The IC50 was 0.1 to 3.16 µM.

**Q.** How did the IC50 turn out when C[C@@H](C(=O)Nc1ccc(Oc2ccc(F)cc2F)cn1)N1CCC(F)(F)[C@@H](c2cc[n+]([O-])c(C(N)=O)c2)C1 (single isomer, unassigned) [Example 258] was run?
**A.** Its IC50 is ≤ 0.01 µM.

**Q.** With CC(C(=O)Nc1cnc(Oc2ccc(F)cc2)cn1)C1CCC[C@@H](c2ccc(=O)[nH]c2)C1 (stereo partly drawn) [Example 284, N-(5-(4-fluorophenoxy)pyrazin-2-yl)-2-((3R)-3-(6-oxo-1,6-dihydropyridin-3-yl)cyclohexyl)propanamide] as the molecule, how does the IC50 read?
**A.** Its IC50 is 0.01 to 0.1 µM.

same assay, conditions: […]; agonist Cortistatin-14 at 4×EC50; 30 min incubation at 37° C.; mean of a minimum of 2 experiments

**Q.** C[C@@H](C(=O)Nc1cnc(Oc2ccc(F)cc2F)cn1)N1CCC(F)(F)[C@@H](c2cc[n+]([O-])cc2)C1 [Example 132, 4-((S)-1-((S)-1-((5-(2,4-difluorophenoxy)pyrazin-2-yl)amino)-1-oxopropan-2-yl)-4,4-difluoropiperidin-3-yl)pyridine 1-oxide] was tested. Which pIC50 did it give?
**A.** Its pIC50 is 8.6.
